Values quoted from earlier work, collected in US12263157B2, “Aldosterone synthase inhibitors for treating chronic kidney disease” (Boehringer Ingelheim International GmbH, priority 2021, dated 2025).

Assays:
[1] = system: patients with diabetic kidney disease; conditions: on top of standard of care
[2] = system: people with type 2 diabetes
[3] = system: patients with heart failure with reduced ejection fraction; conditions: overall trial population

SMILES	relative risk reduction for the composite endpoint of doubling of serum creatinine, ESRD or renal/CV death [1]	HR for the composite outcome of doubling of creatinine, the need to start kidney replacement therapy, or renal death ([2]; exploratory analysis, 95% CI 0.40-0.75)	reduction of the incidence of the composite outcome of doubling of creatinine, the need to start kidney replacement therapy, or renal death ([2]; exploratory analysis, people with type 2 diabetes)	risk of hyperkalaemia or acute kidney injury ([2]; regardless of baseline ACEi or ARB use)	reduction of the risk of the exploratory composite renal endpoint (chronic dialysis, kidney transplant, or sustained reduction in eGFR) [3]
Cc1ccc([C@@H]2O[C@H](CO)[C@@H](O)[C@H](O)[C@H]2O)cc1Cc1ccc(-c2ccc(F)cc2)s1 [canagliflozin]	30%	–	–	–	–
OC[C@H]1O[C@@H](c2ccc(Cl)c(Cc3ccc(O[C@H]4CCOC4)cc3)c2)[C@H](O)[C@@H](O)[C@@H]1O [empagliflozin]	–	0.54	46%	no evidence of an increased risk	50%
